These results are taken from ChEMBL document CHEMBL1143937, “1-deoxyrubralactone, a novel specific inhibitor of families X and Y of eukaryotic DNA polymerases from a fungal strain derived from sea algae” (Bioorg Med Chem, 2008).

Assay [1] is filed under the species Bos taurus. Put plainly: Inhibition of calf terminal deoxynucleotidyl transferase at 100 uM.
Assay [2] relates to Brassica oleracea. Put plainly: Inhibition of cauliflower DNA polymerase alpha at 100 uM.
The target of assay [3] is T1, DNA topoisomerase 1 (Homo sapiens) (UniProt P11387).
T1 sequence (whole entry): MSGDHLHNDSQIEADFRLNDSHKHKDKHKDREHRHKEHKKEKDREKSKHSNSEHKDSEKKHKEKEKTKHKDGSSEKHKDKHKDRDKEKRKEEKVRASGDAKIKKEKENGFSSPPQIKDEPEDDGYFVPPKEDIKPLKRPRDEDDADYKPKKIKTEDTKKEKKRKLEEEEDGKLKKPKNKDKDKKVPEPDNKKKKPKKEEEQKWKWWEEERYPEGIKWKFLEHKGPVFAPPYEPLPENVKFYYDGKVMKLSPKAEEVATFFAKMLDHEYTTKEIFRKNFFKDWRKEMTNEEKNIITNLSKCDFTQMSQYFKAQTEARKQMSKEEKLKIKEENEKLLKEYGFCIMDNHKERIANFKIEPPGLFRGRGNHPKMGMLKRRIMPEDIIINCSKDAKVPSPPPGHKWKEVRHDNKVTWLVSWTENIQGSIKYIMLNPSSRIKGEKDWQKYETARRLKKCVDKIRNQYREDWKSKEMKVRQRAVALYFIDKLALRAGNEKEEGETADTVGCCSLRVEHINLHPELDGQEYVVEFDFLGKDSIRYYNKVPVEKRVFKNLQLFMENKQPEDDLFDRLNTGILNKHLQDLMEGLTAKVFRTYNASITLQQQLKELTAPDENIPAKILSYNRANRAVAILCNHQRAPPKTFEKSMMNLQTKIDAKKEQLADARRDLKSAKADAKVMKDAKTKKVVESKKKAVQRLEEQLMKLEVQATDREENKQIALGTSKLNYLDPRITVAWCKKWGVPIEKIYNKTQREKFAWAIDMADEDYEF
Nature of the assay: Inhibition of human DNA topoisomerase 1 at 100 uM.

The species named for assay [4] is Bos taurus. Put plainly: Inhibition of calf primase DNA polymerase alpha at 100 uM.
Assay [5] relates to Brassica oleracea. Put plainly: Inhibition of cauliflower DNA polymerase beta at 100 uM.
Another assay relates to Escherichia phage T7. Nature of the assay: Inhibition of T7 RNA polymerase […] at 100 uM.
Assay [6] is filed under the species Bos taurus. Nature of the assay: Inhibition of calf DNA polymerase alpha at 100 uM.
The target of assay [7] is Telomerase reverse transcriptase (Homo sapiens) (UniProt O14746). Put plainly: Inhibition of human telomerase at 100 uM.
Chain of Telomerase reverse transcriptase (Homo sapiens) (O14746 whole entry): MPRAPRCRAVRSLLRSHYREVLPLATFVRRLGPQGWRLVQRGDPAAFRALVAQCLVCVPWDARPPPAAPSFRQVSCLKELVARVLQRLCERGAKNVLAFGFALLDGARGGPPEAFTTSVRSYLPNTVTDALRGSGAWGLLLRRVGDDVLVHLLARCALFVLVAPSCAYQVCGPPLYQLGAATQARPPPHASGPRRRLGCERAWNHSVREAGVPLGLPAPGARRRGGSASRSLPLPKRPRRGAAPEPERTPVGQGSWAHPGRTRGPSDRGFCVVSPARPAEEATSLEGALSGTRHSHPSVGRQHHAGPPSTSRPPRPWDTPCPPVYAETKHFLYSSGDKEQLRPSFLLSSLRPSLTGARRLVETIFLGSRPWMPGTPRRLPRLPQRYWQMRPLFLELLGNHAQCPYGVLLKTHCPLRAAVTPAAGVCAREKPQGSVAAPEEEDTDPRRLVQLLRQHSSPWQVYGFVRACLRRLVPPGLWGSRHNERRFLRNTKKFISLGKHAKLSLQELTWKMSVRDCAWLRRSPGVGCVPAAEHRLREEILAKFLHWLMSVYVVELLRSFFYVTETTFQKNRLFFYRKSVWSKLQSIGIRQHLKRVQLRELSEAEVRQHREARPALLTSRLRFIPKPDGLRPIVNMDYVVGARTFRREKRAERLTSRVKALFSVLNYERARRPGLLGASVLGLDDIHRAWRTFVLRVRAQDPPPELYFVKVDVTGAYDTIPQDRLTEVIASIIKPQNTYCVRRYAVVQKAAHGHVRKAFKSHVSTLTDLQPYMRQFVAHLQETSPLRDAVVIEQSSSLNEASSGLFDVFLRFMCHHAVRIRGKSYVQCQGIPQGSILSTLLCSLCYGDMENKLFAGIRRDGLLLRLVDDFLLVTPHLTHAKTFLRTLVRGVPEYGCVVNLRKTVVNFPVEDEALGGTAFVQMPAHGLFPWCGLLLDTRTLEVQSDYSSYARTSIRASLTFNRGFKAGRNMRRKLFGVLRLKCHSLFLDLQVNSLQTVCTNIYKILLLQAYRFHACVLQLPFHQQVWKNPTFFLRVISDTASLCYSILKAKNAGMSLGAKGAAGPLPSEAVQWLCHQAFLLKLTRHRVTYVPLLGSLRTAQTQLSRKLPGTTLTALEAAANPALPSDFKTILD
Assay [8] deals with Polynucleotide kinase (Enterobacteria phage T4) (UniProt P06855). Put plainly: Inhibition of T4 polynucleotide kinase at 100 uM. To be noted: Tequatrovirus T4.
Chain of Polynucleotide kinase (Enterobacteria phage T4) (P06855 whole entry): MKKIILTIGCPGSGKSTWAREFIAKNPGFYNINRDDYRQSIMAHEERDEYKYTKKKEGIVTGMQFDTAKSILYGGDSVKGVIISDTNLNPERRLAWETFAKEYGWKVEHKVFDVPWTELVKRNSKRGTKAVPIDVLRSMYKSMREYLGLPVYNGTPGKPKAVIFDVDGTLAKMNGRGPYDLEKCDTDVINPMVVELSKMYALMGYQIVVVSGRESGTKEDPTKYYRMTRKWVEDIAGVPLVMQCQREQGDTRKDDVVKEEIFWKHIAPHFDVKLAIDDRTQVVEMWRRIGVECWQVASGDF
Assay [9] is filed under the species Homo sapiens. Nature of the assay: Inhibition of human DNA polymerase gamma at 100 uM.
The target of assay [10] is T2, DNA polymerase iota (Homo sapiens) (UniProt Q9UNA4).
T2 sequence (whole entry): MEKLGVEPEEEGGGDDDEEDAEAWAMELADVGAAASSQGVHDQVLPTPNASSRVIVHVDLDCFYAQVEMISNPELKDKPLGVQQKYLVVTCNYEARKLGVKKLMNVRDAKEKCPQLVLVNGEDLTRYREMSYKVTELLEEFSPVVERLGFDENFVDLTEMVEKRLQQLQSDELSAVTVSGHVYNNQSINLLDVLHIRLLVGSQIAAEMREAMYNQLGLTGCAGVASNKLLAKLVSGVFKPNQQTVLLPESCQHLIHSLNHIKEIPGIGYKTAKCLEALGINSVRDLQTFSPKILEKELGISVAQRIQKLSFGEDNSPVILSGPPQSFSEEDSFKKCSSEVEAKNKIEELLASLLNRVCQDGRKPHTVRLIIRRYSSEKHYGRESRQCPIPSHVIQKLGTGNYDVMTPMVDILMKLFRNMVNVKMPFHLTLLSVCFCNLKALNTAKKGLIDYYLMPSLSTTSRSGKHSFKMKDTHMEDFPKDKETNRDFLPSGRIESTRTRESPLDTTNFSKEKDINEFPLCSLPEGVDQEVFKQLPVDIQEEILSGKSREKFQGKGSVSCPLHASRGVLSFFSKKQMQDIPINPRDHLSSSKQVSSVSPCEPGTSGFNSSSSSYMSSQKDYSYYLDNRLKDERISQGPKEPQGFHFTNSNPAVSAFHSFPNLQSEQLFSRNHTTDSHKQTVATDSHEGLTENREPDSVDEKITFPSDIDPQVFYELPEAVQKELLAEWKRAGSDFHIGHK
Nature of the assay: Inhibition of human DNA polymerase iota at 100 uM.

The target of assay [11] is Human immunodeficiency virus type 1 reverse transcriptase (Human immunodeficiency virus 1) (UniProt Q72547). Put plainly: Inhibition of human immunodeficiency virus 1 reverse transcriptase at 100 uM.
For another assay, the target named is T3, DNA polymerase kappa (Homo sapiens, UniProt Q9UBT6).
T3 sequence (Q9UBT6 whole entry): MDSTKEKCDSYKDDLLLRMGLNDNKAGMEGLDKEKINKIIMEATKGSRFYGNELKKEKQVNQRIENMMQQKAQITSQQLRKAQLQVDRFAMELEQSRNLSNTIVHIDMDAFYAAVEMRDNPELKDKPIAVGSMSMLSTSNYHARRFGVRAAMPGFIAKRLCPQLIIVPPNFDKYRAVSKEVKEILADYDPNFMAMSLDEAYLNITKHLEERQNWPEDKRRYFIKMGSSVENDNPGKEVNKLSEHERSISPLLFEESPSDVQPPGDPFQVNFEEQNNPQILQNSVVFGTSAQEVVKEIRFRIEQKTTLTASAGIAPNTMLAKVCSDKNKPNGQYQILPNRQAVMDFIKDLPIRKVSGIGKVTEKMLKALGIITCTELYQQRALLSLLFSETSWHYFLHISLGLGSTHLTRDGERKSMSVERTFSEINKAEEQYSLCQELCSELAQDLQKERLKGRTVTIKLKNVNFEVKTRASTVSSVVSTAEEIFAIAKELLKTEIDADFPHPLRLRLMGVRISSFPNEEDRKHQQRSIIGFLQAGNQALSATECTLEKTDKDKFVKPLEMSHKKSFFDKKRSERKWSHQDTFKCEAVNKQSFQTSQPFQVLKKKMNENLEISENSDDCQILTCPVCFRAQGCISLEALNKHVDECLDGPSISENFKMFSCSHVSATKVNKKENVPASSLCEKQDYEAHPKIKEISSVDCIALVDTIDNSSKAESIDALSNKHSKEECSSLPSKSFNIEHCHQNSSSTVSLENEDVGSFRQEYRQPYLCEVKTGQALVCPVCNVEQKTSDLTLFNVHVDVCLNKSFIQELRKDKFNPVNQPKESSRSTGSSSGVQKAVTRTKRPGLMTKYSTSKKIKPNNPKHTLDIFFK
Nature of the assay: Inhibition of human DNA polymerase kappa.

The next assay deals with Escherichia coli. Nature of the assay: Inhibition of Escherichia coli DNA polymerase 1 at 100 uM.
For assay [12], the species on record is Homo sapiens. Nature of the assay: Inhibition of human DNA topoisomerase 2 at 100 uM.

pIC50: −log10 of the molar value. The source made the active and inactive calls. The rule behind the calls is not given here.

Broadly, the pIC50 is the IC50 on a negative log10 scale, so that one unit is a factor of ten. A higher pIC50 goes with a low IC50. Take `COc1cc(O)c2c(=O)oc3c(c2c1)C(C)CC3=O` (stereo not given): the result (in the assay filed under Bos taurus [1]; in assay [10]) was Active. The result (in the assay with Brassica oleracea [2]; in assay [3]; in the assay listed under Bos taurus [4]; with Brassica oleracea [5]; in the assay on Escherichia phage T7; in the assay filed under Bos taurus [6]) was inactive. Further, the outcome (in assay [7]; in [8]; in the assay filed under Homo sapiens [9]; in assay [11]; in the assay on Escherichia coli; in the assay filed under Homo sapiens [12]) was inactive. In addition, the pIC50 on DNA polymerase kappa was 4.22.

`COc1cc(O)c2c(c1)C1(OC2=O)C(C)=CC(=O)C1O` (stereo not given) [TALAROFLAVONE]: the result (in the assay listed under Bos taurus [1]; in [10]) was Active. The result (in the assay on Brassica oleracea [2]; in assay [3]; in the assay listed under Bos taurus [4]; in the assay with Brassica oleracea [5]; in the assay on Escherichia phage T7; in the assay listed under Bos taurus [6]) was inactive. Also, the result (in assay [7]; in [8]; in the assay listed under Homo sapiens [9]; in [11]; with Escherichia coli; in the assay filed under Homo sapiens [12]) was inactive. The pIC50 against DNA polymerase kappa is 4.06.
